{"source": "patent US6872805B2", "about": "(Bristol-Myers Squibb Company, priority 2000, dated 2005)", "key": {"[1]": {"biological_target": "T1, bovine pancreatic α-chymotrypsin (Bos taurus, UniProt P00766)", "T1 construct": "from tissue; host or cells: pancreas (from the enzyme's name only)", "experiment": "Specificity assay, bovine pancreatic α-chymotrypsin", "type": "biochemical", "procedure": "(§1) The specificities of compounds of the present invention were determined against a variety of serine proteases: human leukocyte elastase, porcine pancreatic elastase and bovine pancreatic α-chymotrypsin and one cysteine protease: human liver cathepsin B. In all cases a 96-well plate format protocol using calorimetric […] (pNA) substrate specific for each enzyme was used as described previously (Patent WO 00/09543) with some modifications.\n(§2) Each assay included a 1 h enzyme-inhibitor pre-incubation at RT followed by addition of substrate and hydrolysis to ˜30% conversion as measured on a Spectramax Pro microplate reader. Compound concentrations varied from 100 to 0.4 μM depending on their potency.\n(§3) The final conditions and protocol for each assay was as reported previously (Patent WO 00/09543) with the inclusion of an additional assay: • 50 mM Tris-HCl pH 8, 0.5M Na2SO4, 50 mM NaCl, 0.1 mM EDTA, 3% DMSO, 0.01% Tween-20 with 133 μM succ-AAA-PNA and 20 nM Elastase\n(§4) The percentage of inhibition was calculated using the formula: [1−((UVinh−UVblank)/(UVctl−UVblank))]×100"}, "[2]": {"test_system": "HCV replicon in Huh7 cells", "experiment": "HCV replicon cell-based assay", "set-up": "species or system HCV strain 1B", "details": "Hepatitis C virus, HCV replicon, Huh7 cells", "how_it_was_run": "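Genotype 1b subgenomic replicon Huh7 cells exposed to compound 4 days at 37° C in 4% FCS, 0.5% DMSO medium. EC50 from TaqMan RT-PCR of HCV RNA, normalized to total RNA by RiboGreen; CC50 from alamar Blue fluorescence after 4 h.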"}, "[3]": {"biological_target": "T2, porcine pancreatic elastase (Sus scrofa, UniProt P00772)", "T2 construct": "from tissue; host or cells: pancreas (from the enzyme's name only)", "T2 sequence (P00772 27-266)": "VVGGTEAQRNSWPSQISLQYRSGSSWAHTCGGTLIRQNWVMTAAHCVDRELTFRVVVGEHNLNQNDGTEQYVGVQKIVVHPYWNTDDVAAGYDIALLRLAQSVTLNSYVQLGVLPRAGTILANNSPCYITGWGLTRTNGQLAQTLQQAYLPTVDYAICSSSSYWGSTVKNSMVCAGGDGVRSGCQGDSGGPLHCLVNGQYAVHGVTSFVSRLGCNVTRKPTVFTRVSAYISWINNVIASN", "experiment": "Specificity assay, porcine pancreatic elastase", "type": "biochemical", "details": "read-out: PPE", "procedure": "as §1, §2, §3, §4"}, "human liver cathepsin B": {"biological_target": "T3, human liver cathepsin B (Homo sapiens, UniProt P07858)", "T3 construct": "from tissue; host or cells: liver", "experiment": "Specificity assay, human liver cathepsin B", "type": "biochemical", "procedure": "as §1, §2, §3, §4"}}, "note": "Read-outs that look alike come from different tables or passages of the source.", "data": [{"smiles": "C=CC1C[C@]1(NC(=O)[C@@H]1C[C@@H](Oc2cc(-c3ccccc3)nc3cc(OC)ccc23)CN1C(=O)C(NC(=O)OC(C)(C)C)C(C)(C)C)C(=O)NS(=O)(=O)c1ccc(NC(C)=O)cc1", "note": "(some centres unmarked) [Compound 58]", "values": [{"measurement": "IC50", "setting": "[1]", "result": "> 100", "unit": "µM"}, {"measurement": "EC50", "setting": "[2]; Huh-7, 96 h, 4 days, activity ranges, read-out: EC50", "result": "< 0.5", "unit": "µM"}, {"measurement": "EC50", "setting": "[2]; Huh-7, read-out: EC50 value in the replicon assay", "result": 0.25, "unit": "µM"}, {"measurement": "IC50", "setting": "[3]", "result": "> 100", "unit": "µM"}, {"measurement": "IC50", "setting": "human liver cathepsin B", "result": "> 100", "unit": "µM"}]}]}
